Patent US20240425524A1, “SPIROTRICYCLE RIPK1 INHIBITORS AND METHODS OF USES THEREOF” (Merck Sharp & Dohme LLC, priority 2021, published 2024)

Biological target: RIPK1 (Homo sapiens (Human), UniProt Q13546)
Assay: RIPK1-ADP-Glo Enzymatic Assay
Format: biochemical
Conditions: recombinant GST-RIPK1 kinase domain (residues 1-327), 25 nM, ten-point titration, 30 minutes pre-incubation
Description: The enzymatic activity of RIPK1 was measured using an assay derived from ADP-Glo kit (™Promega), which provides a luminescent-based ADP detection system. Specifically, the ADP generated by RIPK1 kinase was proportionally detected as luminescent signals in a homogenous fashion. In this context, the assessment of the inhibitory effect of small molecules (EC50) was measured by the effectiveness of the compounds to inhibit the ATP to ADP conversion by RIPK1.
In this assay, the potency (EC50) of each compound was determined from a ten-point (1:3 serial dilution: top compound concentration of 100000 nM) titration curve using the following outlined procedure. To each well of a white ProxiPlus 384 well-plate, 30 nL of compound (1% DMSO in final assay volume of 3 μL) was dispensed, followed by the addition of 2 μL of 1x assay buffer (25 mM Hepes 7.3, 20 mM MgCl2, 50 mM NaCl, 1 mM DTT, 0.005% Tween20, and 0.02% BSA) containing 37.5 nM of GST-RIPK1 (recombinant GST-RIPK1 kinase domain (residues 1-327) enzyme produced from baculovirus-transfected Sf21 cells: MW=62 kDa). Plates were placed in an ambient temperature humidified chamber for a 30 minutes pre-incubation with compound. Subsequently, each reaction was initiated by the addition of 1 μL 1× assay buffer containing […] dephosphorylated-MBP substrate. The final reaction in each well of 3 μL consists of 25 nM of GST-RIPK1, 300 µM ATP, and 3 μM dephosphorylated-MBP. Kinase reactions were allowed to proceed for 150 minutes prior to adding ADP-Glo reagents per Promega's outlined kit protocol. Dose-response curves were generated by plotting percent effect (% product conversion: Y-axis) vs. Logio compound concentrations (X-axis). EC50 values were calculated using a non-linear regression, four-parameters sigmoidal dose-response model and are provided for example compounds of the invention (labeled “RIPK1 EC50 (nM)” throughout the above examples).

Sequence of RIPK1 (Q13546 1-327): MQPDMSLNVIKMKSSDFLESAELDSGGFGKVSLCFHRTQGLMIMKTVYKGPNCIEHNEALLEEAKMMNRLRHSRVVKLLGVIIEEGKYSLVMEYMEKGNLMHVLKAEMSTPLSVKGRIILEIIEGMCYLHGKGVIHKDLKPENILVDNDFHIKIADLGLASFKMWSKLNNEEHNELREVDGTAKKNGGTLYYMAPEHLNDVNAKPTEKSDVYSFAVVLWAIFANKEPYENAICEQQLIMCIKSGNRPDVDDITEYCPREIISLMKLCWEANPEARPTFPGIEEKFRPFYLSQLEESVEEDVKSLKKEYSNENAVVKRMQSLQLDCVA

Row | SMILES | EC50 [nM]
1 | CN(C)c1nc(Cl)cc(N2CCC3(CC2)CN2CC[C@@H](c4cc(F)cc(F)c4)N2C3=O)n1 [Example 1.30, (S)-1-(6-chloro-2-(dimethylamino)pyrimidin-4-yl)-7′-(3,5-difluorophenyl)dihydro-1′H,3′H,5′H-spiro[piperidine-4,2′-pyrazolo[1,2-a]pyrazol]-1′-one] | 110
2 | Cc1cc(N2CCC3(CC2)CN2CC[C@@H](c4cc(F)cc(F)c4)N2C3=O)nc(C#N)n1 [Example 1.16, (S)-4-(7′-(3,5-difluorophenyl)-1′-oxodihydro-1′H,3′H,5′H-spiro[piperidine-4,2′-pyrazolo[1,2-a]pyrazol]-1-yl)-6-methylpyrimidine-2-carbonitrile] | 67
3 | O=C1N2[C@H](c3cc(F)cc(F)c3)CCN2CC12CCN(c1nc(Cl)nc3c1CCC3)CC2 [Example 1.65, (S)-1-(2-chloro-6,7-dihydro-5H-cyclopenta[d]pyrimidin-4-yl)-7′-(3,5-difluorophenyl)dihydro-1′H,3′H,5′H-spiro[piperidine-4,2′-pyrazolo[1,2-a]pyrazol]-1′-one] | 144
4 | O=C1N2[C@H](c3cc(F)cc(F)c3)CCN2CC12CCN(c1ncc(C3CC3)cn1)CC2 [Example 1.56, (S)-1-(5-cyclopropylpyrimidin-2-yl)-7′-(3,5-difluorophenyl)dihydro-1′H,3′H,5′H-spiro[piperidine-4,2′-pyrazolo[1,2-a]pyrazol]-1′-one] | 321
5 | Cc1cnc(N2CCC3(CC2)CN2CC[C@@H](c4cc(F)cc(F)c4)N2C3=O)nc1 [Example 1.6, (7′S)-7′-(3,5-difluorophenyl)-1-(5-methylpyrimidin-2-yl)dihydro-1′H,3′H,5′H-spiro[piperidine-4,2′-pyrazolo[1,2-a]pyrazol]-1′-one] | 393
6 | CNC(=O)c1cc(N2CCC3(CC2)CN2CC[C@@H](c4cc(F)cc(F)c4)N2C3=O)ncn1 [Example 1.86, (S)-6-(7′-(3,5-difluorophenyl)-1′-oxodihydro-1′H,3′H,5′H-spiro[piperidine-4,2′-pyrazolo[1,2-a]pyrazol]-1-yl)-N-methylpyrimidine-4-carboxamide] | 555
7 | N#Cc1cc(Cl)nc(N2CCC3(CC2)CN2CC[C@@H](c4cc(F)cc(F)c4)N2C3=O)c1 [Example 1.52, (S)-2-chloro-6-(7′-(3,5-difluorophenyl)-1′-oxodihydro-1′H,3′H,5′H-spiro[piperidine-4,2′-pyrazolo[1,2-a]pyrazol]-1-yl)isonicotinonitrile] | 54
8 | N#Cc1ccc(N2CCC3(CC2)CN2CC[C@@H](c4cc(F)cc(F)c4)N2C3=O)n2nccc12 [Example 7.1] | 6
9 | O=C1N2[C@H](c3cc(F)cc(F)c3)CCN2CC12CCN(c1cccc(CO)n1)CC2 [Example 1.4, (7′S)-7′-(3,5-difluorophenyl)-1-[6-(hydroxymethyl)pyridin-2-yl]dihydro-1′H,3′H,5′H-spiro [piperidine-4,2′-pyrazolo[1,2-a]pyrazol]-1′-one] | 629
10 | O=C(c1ncccn1)N1CCC2(CC1)CN1CC[C@@H](c3cc(F)cc(F)c3)N1C2=O [Example 4.2, (S)-7′-(3,5-difluorophenyl)-1-(pyrimidine-2-carbonyl)dihydro-1′H,3′H,5′H-spiro[piperidine-4,2′-pyrazolo[1,2-a]pyrazol]-l′-one] | 434
11 | CC(F)(F)c1ccnc(N2CCC3(CC2)CN2CC[C@@H](c4cc(F)cc(F)c4)N2C3=O)n1 [Example 1.77, (S)-1-(4-(1,1-difluoroethyl)pyrimidin-2-yl)-7′-(3,5-difluorophenyl)dihydro-1′H,3′H,5′H-spiro [piperidine-4,2′-pyrazolo[1,2-a]pyrazol]-1′-one] | 200
12 | N#Cc1nccc(N2CCC3(CC2)CN2CC[C@@H](c4cc(F)cc(F)c4)N2C3=O)n1 [Example 1.78, (S)-4-(7′-(3,5-difluorophenyl)-1′-oxodihydro-1′H,3′H,5′H-spiro[piperidine-4,2′-pyrazolo[1,2-a]pyrazol]-1-yl)pyrimidine-2-carbonitrile] | 73
13 | Cc1cc(N2CCC3(CC2)CN2CC[C@@H](c4cc(F)cc(F)c4)N2C3=O)nc(C(F)(F)F)n1 [Example 1.44, (S)-7′-(3,5-difluorophenyl)-1-(6-methyl-2-(trifluoromethyl)pyrimidin-4-yl)dihydro-1′H,3′H,5′H-spiro[piperidine-4,2′-pyrazolo[1,2-a]pyrazol]-1′-one] | 274
14 | O=C1N2[C@H](c3cc(F)cc(F)c3)CCN2CC12CCN(c1ncnc3scnc13)CC2 [Example 3.3, (S)-7′-(3,5-difluorophenyl)-1-(thiazolo[5,4-d]pyrimidin-7-yl)dihydro-1′H,3′H,5′H-spiro[piperidine-4,2′-pyrazolo[1,2-a]pyrazol]-1′-one] | 14
15 | O=C1N2[C@H](c3cc(F)cc(F)c3)CCN2CC12CCN(c1cnnc(Cl)c1)CC2 [Example 1.96, (S)-1-(6-chloropyridazin-4-yl)-7′-(3,5-difluorophenyl)dihydro-1′H,3′H,5′H-spiro[piperidine-4,2′-pyrazolo[1,2-a]pyrazol]-1′-one] | 571
16 | COc1nc(N2CCC3(CC2)CN2CC[C@@H](c4cc(F)cc(F)c4)N2C3=O)ncc1C [Example 1.23, (S)-7′-(3,5-difluorophenyl)-1-(4-methoxy-5-methylpyrimidin-2-yl)dihydro-1′H,3′H,5′H-spiro[piperidine-4,2′-pyrazolo[1,2-a]pyrazol]-1′-one] | 68
17 | O=C1N2[C@H](c3cc(F)cc(F)c3)CCN2CC12CCN(c1nc3ccccc3o1)CC2 [Example 1.80, (S)-1-(benzo[d]oxazol-2-yl)-7′-(3,5-difluorophenyl)dihydro-1′H,3′H,5′H-spiro[piperidine-4,2′-pyrazolo[1,2-a]pyrazol]-1′-one] | 50

The remaining molecules from weak to strong by EC50, led by results:

Row | EC50 [nM] | SMILES
18 | 49 | N#Cc1cc(N2CCC3(CC2)CN2CC[C@@H](c4cc(F)cc(F)c4)N2C3=O)ccn1 [Example 2.4, (S)-4-(7′-(3,5-difluorophenyl)-1′-oxodihydro-l′H,3′H,5′H-spiro[piperidine-4,2′-pyrazolo[1,2-a]pyrazol]-1-yl)picolinonitrile]
19 | 38 | O=C1N2[C@H](c3cc(F)cc(F)c3)CCN2CC12CCN(c1ncc(OC(F)F)cn1)CC2 [Example 1.25, (S)-1-(5-(difluoromethoxy)pyrimidin-2-yl)-7′-(3,5-difluorophenyl)dihydro-1′H,3′H,5′H-spiro[piperidine-4,2′-pyrazolo[1,2-a]pyrazol]-1′-one]
20 | 38 | Cc1ccc(C(=O)N2CCC3(CC2)CN2CC[C@@H](c4cc(F)cc(F)c4)N2C3=O)cc1 [Example 4.3, (S)-7′-(3,5-difluorophenyl)-1-(4-methylbenzoyl)dihydro-1′H,3′H,5′H-spiro[piperidine-4,2′-pyrazolo[1,2-a]pyrazol]-l′-one]
21 | 37 | Cc1cn(-c2cc(N3CCC4(CC3)CN3CC[C@@H](c5cc(F)cc(F)c5)N3C4=O)ncn2)cn1 [Example 1.19, (S)-7′-(3,5-difluorophenyl)-1-(6-(4-methyl-1H-imidazol-1-yl)pyrimidin-4-yl)dihydro-1′H,3′H,5′H-spiro [piperidine-4,2′-pyrazolo[1,2-a]pyrazol]-1′-one]
22 | 28 | O=C1N2[C@H](c3cc(F)cc(F)c3)CCN2CC12CCN(c1cccc(F)n1)CC2 [Example 1.71, (S)-7′-(3,5-difluorophenyl)-1-(6-fluoropyridin-2-yl)dihydro-1′H,3′H,5′H-spiro[piperidine-4,2′-pyrazolo[1,2-a]pyrazol]-1′-one]
23 | 26 | O=C(c1cc(F)cc(F)c1F)N1CCC2(CC1)CN1CC[C@@H](c3cc(F)cc(F)c3)N1C2=O [Example 4.12, (S)-7′-(3,5-difluorophenyl)-1-(2,3,5-trifluorobenzoyl) dihydro-1′H,3′H,5′H-spiro[piperidine-4,2′-pyrazolo[1,2-a]pyrazol]-l′-one]
24 | 15 | Cn1nccc1-c1cc(N2CCC3(CC2)CN2CC[C@@H](c4cc(F)cc(F)c4)N2C3=O)ncn1 [Example 1.21, (S)-7′-(3,5-difluorophenyl)-1-(6-(1-methyl-1H-pyrazol-5-yl)pyrimidin-4-yl)dihydro-1′H,3′H,5′H-spiro[piperidine-4,2′-pyrazolo[1,2-a]pyrazol]-l′-one]
25 | 15 | Cc1nc(N2CCC3(CC2)CN2CC[C@@H](c4cc(F)cc(F)c4)N2C3=O)ncc1OC(F)F [Example 1.26, (S)-1-(5-(difluoromethoxy)-4-methylpyrimidin-2-yl)-7′-(3,5-difluorophenyl)dihydro-1′H,3′H,5′H-spiro [piperidine-4,2′-pyrazolo[1,2-a]pyrazol]-1′-one]
26 | 15 | O=C(c1cc(F)ccc1F)N1CCC2(CC1)CN1CC[C@@H](c3cc(F)cc(F)c3)N1C2=O [Example 4.21, (S)-1-(2,5-difluorobenzoyl)-7′-(3,5-difluorophenyl) dihydro-1′H,3′H,5′H-spiro[piperidine-4,2′-pyrazolo[1,2-a]pyrazol]-l′-one]
